Columns and labels:
[1] = Pharmacokinetic parameters, i.v. and p.o.; assay type: in vivo; settings: plasma
[2] = system: orthotopic PDAC microenvironment; test: Flow cytometry and scRNA-seq of orthotopic PDAC microenvironment; assay type: in vivo, mice
Method: Bulk RNA sequencing was performed by GenePlus (China) on pancreatic cancer organoids treated with 10 μM of […] or MSA-2, compared to a control group, with three biological replicates. The sequencing data are available for access and analysis via the provided website. Single-cell RNA sequencing (scRNA-seq) was conducted by NovelBio (China) on in situ mouse pancreatic tumors following tissue digestion. The resulting sequencing data were analyzed using R software. Mouse tumors were digested using the Mouse Tumor Dissociation Kit (Miltenyi Biotec) according to the manufacturer's protocol. The resulting single-cell suspension was filtered through a 70-micron mesh to ensure a homogeneous cell population. Cells were stained with fluorescently labeled antibodies for flow cytometry at 4°C on ice for 30 minutes. After washing off unbound antibodies, fluorescence was detected using a Beckman CytoFlex S flow cytometer. For co-cultured immune cells, separated T cells and macrophages were similarly stained with flow cytometry antibodies. For cytokine staining, cells were pre-stimulated with the eBioscienceTM Cell Stimulation Cocktail for 4 hours. For intracellular protein staining, after surface staining, cells were fixed and permeabilized using the BD Cytofix/CytopermTM Fixation/Permeabilization Kit, followed by staining for intracellular proteins. Flow cytometry data were analyzed using FlowJo 10 software.

[3] = system: pancreatic orthotopic tumor; test: Pancreatic orthotopic tumor model; assay type: in vivo, C57BL/6 mice
Method: For the pancreatic orthotopic tumor model, mice were anesthetized using […] (2,2,2-tribromoethanol) (Aladdin), and the pancreas was surgically exposed. Approximately 5 × 10^5 tumor cells suspended in 50 μL PBS were injected into the pancreas. The incision was then closed, and the mice were allowed to recover under close observation. On days 9, 12, and 15, the mice received intraperitoneal injections of three different concentrations of the drug. As with the subcutaneous model, the mice were euthanized on day 25, tumors were collected, weighed, and further analyzed. Additionally, at least 10 mice from each group were randomly selected to undergo the same treatments without euthanasia, and their survival times were recorded to generate survival curves.
Pancreatic orthotopic tumor models were established using mouse pancreatic tumor cell lines (Pan02-luc and KPC-luc). Mice were intraperitoneally injected with 200 µL of D-Luciferin working solution (15 mg/mL) (Yeasen) and continuously anesthetized with isoflurane. Ten minutes after injection, the intensity and distribution of luciferase luminescence were measured using the Tanon ABL-X5 in vivo imaging system. Tumor size was monitored weekly, with consistent exposure times and intensities for imaging.
Multiplex cytokine detection was performed using Luminex cytokine bead array technology provided by WayenBio, Shanghai. In the mouse tumor model, levels of multiple cytokines were simultaneously measured and normalized to tumor weight. For the quantification of specific cytokines, such as IL-6 and IFN-β, enzyme-linked immunosorbent assay (ELISA) kits from Abclonal were used. The assays were conducted according to the manufacturer's instructions.

[4] = system: human STING variants (R232); test: Differential scanning fluorimetry (DSF); assay type: binding; settings: n = 3
From the text: (§1) human STING variants (R232) and mouse STING (R231) in differential scanning
(§2) fluorimetry (DSF) assay. The data were shown as the mean value of fluorescence (n =
(§3) (1 picture or pasted object on this page, not shown here)

[5] = molecular target: T1, mouse STING (R231) (Mus musculus, UniProt Q3TBT3); test: Differential scanning fluorimetry (DSF); assay type: binding; settings: n = 3
T1 sequence (Q3TBT3 1-378): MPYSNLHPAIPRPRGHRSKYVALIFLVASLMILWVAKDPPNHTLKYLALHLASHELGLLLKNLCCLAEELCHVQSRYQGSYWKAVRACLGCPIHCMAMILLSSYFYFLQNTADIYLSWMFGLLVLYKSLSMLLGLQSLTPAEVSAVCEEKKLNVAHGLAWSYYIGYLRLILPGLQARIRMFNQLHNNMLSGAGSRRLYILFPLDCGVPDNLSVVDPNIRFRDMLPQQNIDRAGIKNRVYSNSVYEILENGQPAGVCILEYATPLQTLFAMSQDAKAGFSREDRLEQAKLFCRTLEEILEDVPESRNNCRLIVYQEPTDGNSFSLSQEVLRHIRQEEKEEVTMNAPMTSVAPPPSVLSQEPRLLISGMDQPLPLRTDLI
From the text: as §1, §2, §3

[6] = system: STING signaling; test: Relative gene expression in RAW-Lucia cells (RT-qPCR); assay type: cell-based, mouse
Method: RNA from tumor tissues or cells was extracted using the SteadyPure Universal RNA Extraction Kit (Accurate Biology) and reverse transcribed into cDNA with the Evo M-MLV Reverse Transcription Kit (Accurate Biology). Relative RNA expression levels were quantified using 2X Universal SYBR Green Fast qPCR Mix (Abclonal), and the results were recorded on the qTOWER®3 84 Real-Time PCR system.

[7] = system: subcutaneous pancreatic tumor; test: CD45.1 T cell or BMDM transfer into CD45.2 tumor-bearing mice; assay type: in vivo
[8] = Metabolite profiling in liver microsomes, 60 min incubation; assay type: in vitro ADME, rat; settings: D166 incubated 60 min; selected ion chromatographic peak areas
[9] = as above; assay type: in vitro ADME, mouse; settings: D166 incubated 60 min; selected ion chromatographic peak areas
[10] = as above; assay type: in vitro ADME, dog; settings: D166 incubated 60 min; selected ion chromatographic peak areas
[11] = flow cytometry of tumor suspensions
[12] = CD45.1 bone marrow-derived macrophages transferred

AUC(0-inf) ([1]; iv, average of three runs): 750 ng·h/mL | MRT inf ([1]; iv, average of three runs): 15.6 min | clearance ([1]; iv, average of three runs): 22.5 mL/min/kg | half-life ([1]; iv, average of three runs): 45 min | Vd ([1]; iv, average of three runs, read-out: Vz): 1.45 L/kg | AUC(0-inf) ([1]; po, average of three runs): 2120 ng·h/mL | MRT inf ([1]; po, average of three runs): 66 min | half-life ([1]; po, average of three runs): 81 min | bioavailability ([1]; p.o., oral bioavailability): 93.8% | thermal stability of mouse STING (R231) [5]: increased | Relative Peak Area Abundance (%) RLM [8]: 97.7% | Relative Peak Area Abundance (%) MLM [9]: 94.2% | Relative Peak Area Abundance (%) DLM [10]: 98.6%
Structure (SMILES): [2H]C([2H])([2H])Oc1cc2cc(C(=O)CCC(=O)O)sc2cc1OC([2H])([2H])[2H] [D166]
proportion of ductal cells (including cancer cells) and fibroblasts ([2]; 10 mg/kg D166, 10X single-cell sequencing): significant reduction | F4/80-positive macrophages among the myeloid cells [2, 11]: significant increase | proportion of CD4+ and CD8+ T cells [2, 11]: significantly increased | cytokine levels in the TME, including IL-6, IFN-β, and TNF-α ([3]; higher D166 doses, ELISA): elevated cytokine levels | inhibition of tumor proliferation, weekly in vivo imaging ([3]; increasing D166 concentrations, compared with DMXAA): more potent effect than DMXAA | pancreatic tumor progression ([3]; intraperitoneal injection at varying doses): significant dose-dependent inhibition | thermal stability of human STING variants (R232) [4]: increased | Relative expression (Cxcl10/actin) [6]: 158.00 ± 2.91 | tumor progression ([7]; CD45.1 T cells transferred, D166 concentration increased): slowed | expression of M1 macrophage markers (CD86 and iNOS) in CD45.1 macrophages [7, 12]: increased | expression of M2 markers in CD45.1 macrophages [7, 12]: decreased | IFNG, GZMB, and PDCD1 in the CD45.1 T cells ([7]; sorted CD45.1 cells): significant upregulation
